Experimental data taken from article PMC10893631, “Receptor-based pharmacophore modeling, molecular docking, synthesis and biological evaluation of novel VEGFR-2, FGFR-1, and BRAF multi-kinase inhibitors” (BMC Chemistry, 2024).

Legend:
[1] = target: T1, VEGFR-2 (Homo sapiens, UniProt P35968); assay: VEGFR-2 kinase assay kit (BPS), Kinase-Glo Max luminescence; type: biochemical; settings: VEGFR-2, single dose 10 µM, duplicate, mean ± SD
T1 construct: purchased BPS Biosciences 40325

[2] = test system: ACHN; assay: NCI SRB growth inhibition (single dose 10 µM / five-dose); type: cell-based, human; settings: Homo sapiens; for inhibition at 10 µM: ACHN (Renal cancer), read-out: GI%; for GI50: ACHN, Renal cancer, five-dose
How it was run: (§1)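 Growth inhibition is derived from seven absorbance readings per agent (Tz, C and five Ti). Where a parameter level is not reached or is exceeded, the value is given as greater or less than the highest or lowest concentration tested.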

[3] = test system: DU-145; assay: as above; type: cell-based, human; settings: Homo sapiens; for inhibition at 10 µM: DU-145 (Prostate cancer), read-out: GI%; for GI50: DU-145, Prostate cancer, five-dose
How it was run: as §1

[4] = test system: EKVX; assay: as above; type: cell-based, human; settings: Homo sapiens; for inhibition at 10 µM: EKVX (Non-small cell lung cancer), read-out: GI%; for GI50: EKVX, Non-small cell lung cancer, five-dose
How it was run: as §1

[5] = test system: K-562; assay: as above; type: cell-based, human; settings: Homo sapiens, K562; for inhibition at 10 µM: K-562 (Leukemia), read-out: GI%; for GI50: K-562, Leukemia, five-dose
How it was run: as §1

[6] = test system: LOX IMVI; assay: as above; type: cell-based, human; settings: Homo sapiens; for inhibition at 10 µM: LOX IMVI (Melanoma), read-out: GI%; for GI50: LOX IMVI, Melanoma, five-dose
How it was run: as §1

[7] = test system: M14; assay: as above; type: cell-based, human; settings: Homo sapiens; for inhibition at 10 µM: M14 (Melanoma), read-out: GI%; for GI50: M14, Melanoma, five-dose
How it was run: as §1

[8] = test system: NCI-H322M; assay: as above; type: cell-based, human; settings: Homo sapiens; for inhibition at 10 µM: NCI-H322M (Non-small cell lung cancer), read-out: GI%; for GI50: NCI-H322M, Non-small cell lung cancer, five-dose
How it was run: as §1

[9] = test system: OVCAR-4; assay: as above; type: cell-based, human; settings: Homo sapiens; for inhibition at 10 µM: OVCAR-4 (Ovarian cancer), read-out: GI%; for GI50: OVCAR-4, Ovarian cancer, five-dose
How it was run: as §1

[10] = test system: RPMI-8226; assay: as above; type: cell-based, human; settings: Homo sapiens; for inhibition at 10 µM: RPMI-8226 (Leukemia), read-out: GI%; for GI50: RPMI-8226, Leukemia, five-dose
How it was run: as §1

[11] = test system: SK-MEL-2; assay: as above; type: cell-based, human; settings: Homo sapiens; for inhibition at 10 µM: SK-MEL-2 (Melanoma), read-out: GI%; for GI50: SK-MEL-2, Melanoma, five-dose
How it was run: as §1

[12] = test system: SNB-19; assay: as above; type: cell-based, human; settings: Homo sapiens; for inhibition at 10 µM: SNB-19 (CNS cancer), read-out: GI%; for GI50: SNB-19, CNS cancer, five-dose
How it was run: as §1

[13] = test system: T-47D; assay: as above; type: cell-based, human; settings: Homo sapiens, T47D; for inhibition at 10 µM: T-47D (Breast cancer), read-out: GI%; for GI50: T-47D, Breast cancer, five-dose
How it was run: as §1

T1 sequence (P35968 20-1356): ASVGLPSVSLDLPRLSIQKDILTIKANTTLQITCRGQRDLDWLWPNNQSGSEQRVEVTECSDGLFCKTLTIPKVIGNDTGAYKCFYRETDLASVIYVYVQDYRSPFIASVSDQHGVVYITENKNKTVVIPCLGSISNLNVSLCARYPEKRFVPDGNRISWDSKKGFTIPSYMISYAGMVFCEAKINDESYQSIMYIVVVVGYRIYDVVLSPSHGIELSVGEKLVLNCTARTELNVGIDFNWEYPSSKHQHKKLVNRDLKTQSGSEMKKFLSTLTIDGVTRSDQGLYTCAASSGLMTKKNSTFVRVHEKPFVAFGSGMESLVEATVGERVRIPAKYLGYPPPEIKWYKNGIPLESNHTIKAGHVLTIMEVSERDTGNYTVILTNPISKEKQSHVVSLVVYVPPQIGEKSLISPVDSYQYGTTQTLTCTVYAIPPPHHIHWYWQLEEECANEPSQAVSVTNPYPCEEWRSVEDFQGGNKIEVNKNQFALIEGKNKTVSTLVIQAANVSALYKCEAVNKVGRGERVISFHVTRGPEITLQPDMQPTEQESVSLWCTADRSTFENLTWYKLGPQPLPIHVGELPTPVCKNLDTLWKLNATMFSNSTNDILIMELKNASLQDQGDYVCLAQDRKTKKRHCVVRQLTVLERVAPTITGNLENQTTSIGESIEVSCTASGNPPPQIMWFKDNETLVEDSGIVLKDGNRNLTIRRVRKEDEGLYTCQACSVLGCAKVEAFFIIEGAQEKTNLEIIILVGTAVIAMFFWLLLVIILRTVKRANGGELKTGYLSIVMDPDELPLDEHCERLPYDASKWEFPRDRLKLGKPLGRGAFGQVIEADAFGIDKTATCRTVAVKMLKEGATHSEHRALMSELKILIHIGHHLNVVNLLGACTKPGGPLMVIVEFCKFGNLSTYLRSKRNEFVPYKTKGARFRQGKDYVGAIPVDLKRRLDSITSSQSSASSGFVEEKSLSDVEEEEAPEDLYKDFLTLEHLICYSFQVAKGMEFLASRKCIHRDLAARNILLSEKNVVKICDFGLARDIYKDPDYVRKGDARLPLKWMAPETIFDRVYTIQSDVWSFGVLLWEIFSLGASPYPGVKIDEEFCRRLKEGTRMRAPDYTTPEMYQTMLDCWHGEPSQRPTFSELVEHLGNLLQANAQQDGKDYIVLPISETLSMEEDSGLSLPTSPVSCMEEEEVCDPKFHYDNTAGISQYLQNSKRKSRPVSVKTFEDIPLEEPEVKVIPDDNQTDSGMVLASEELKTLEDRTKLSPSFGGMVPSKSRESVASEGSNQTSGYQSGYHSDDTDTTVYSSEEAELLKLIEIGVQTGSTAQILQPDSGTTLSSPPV

## O=C(NN=Cc1cccc(O)c1)c1ccc2[nH]c(-c3ccccc3)nc2c1 [8b, N'-(3-Hydroxybenzylidene)-2-phenyl-1H-benzo[d]imidazole-5-carbohydrazide]
[1]
  inhibition at 10 µM: 23.8 ± 1.47%
[2]
  inhibition at 10 µM: < 5%
[3]
  inhibition at 10 µM: < 5%
[4]
  inhibition at 10 µM: 13.8%
[5]
  inhibition at 10 µM: 21.4%
[6]
  inhibition at 10 µM: 7.43%
[7]
  inhibition at 10 µM: < 5%
[8]
  inhibition at 10 µM: < 5%
[9]
  inhibition at 10 µM: 12.4%
[10]
  inhibition at 10 µM: 9.59%
[11]
  inhibition at 10 µM: < 5%
[12]
  inhibition at 10 µM: < 5%
[13]
  inhibition at 10 µM: 50.9%

## COc1cc(C=NNC(=O)c2ccc3[nH]c(-c4ccc(Cl)cc4)nc3c2)cc(OC)c1OC [8u, 2-(4-Chlorophenyl)-N'-(3,4,5-trimethoxybenzylidene)-1H-benzo[d]imidazole-5-carbohydrazide]
[1]
  inhibition at 10 µM: 80 ± 3.98%
[2]
  inhibition at 10 µM: 69.9%
  GI50: 7.93 µM
[3]
  inhibition at 10 µM: > 100%
  GI50: 6.77 µM
[4]
  inhibition at 10 µM: 90.8%
  GI50: 14.8 µM
[5]
  inhibition at 10 µM: > 100%
  GI50: 1.96 µM
[6]
  inhibition at 10 µM: > 100%
  GI50: 4.67 µM
[7]
  inhibition at 10 µM: > 100%
  GI50: 3.77 µM
[8]
  inhibition at 10 µM: 96.1%
  GI50: 8.29 µM
[9]
  inhibition at 10 µM: > 100%
  GI50: 2.35 µM
[10]
  inhibition at 10 µM: > 100%
  GI50: 3.21 µM
[11]
  inhibition at 10 µM: > 100%
  GI50: 11 µM
[12]
  inhibition at 10 µM: > 100%
  GI50: 3.42 µM
[13]
  inhibition at 10 µM: > 100%
  GI50: 3.48 µM

## O=C(NN=Cc1ccccc1O)c1ccc2[nH]c(-c3ccc(Cl)cc3)nc2c1 [8o, 2-(4-Chlorophenyl)-N'-(2-hydroxybenzylidene)-1H-benzo[d]imidazole-5-carbohydrazide]
[1]
  inhibition at 10 µM: 22.3 ± 1.95%
[2]
  inhibition at 10 µM: 94.2%
  GI50: 0.81 µM
[3]
  inhibition at 10 µM: > 100%
  GI50: 1.36 µM
[4]
  inhibition at 10 µM: 67.2%
  GI50: 9.31 µM
[5]
  inhibition at 10 µM: 85.5%
  GI50: 0.15 µM
[6]
  inhibition at 10 µM: > 100%
  GI50: 0.43 µM
[7]
  inhibition at 10 µM: 90.9%
  GI50: 1.81 µM
[8]
  inhibition at 10 µM: 70.2%
  GI50: 1.38 µM
[9]
  inhibition at 10 µM: > 100%
  GI50: 1.25 µM
[10]
  inhibition at 10 µM: 88.2%
  GI50: > 38.8 µM
[11]
  inhibition at 10 µM: > 100%
  GI50: 4.6 µM
[12]
  inhibition at 10 µM: > 100%
  GI50: 1.12 µM
[13]
  GI50: 1.48 µM

## COc1ccc(C=NNC(=O)c2ccc3[nH]c(-c4ccccc4)nc3c2)cc1O [8e, N'-(3-Hydroxy-4-methoxybenzylidene)-2-phenyl-1H-benzo[d]imidazole-5-carbohydrazide]
[1]
  inhibition at 10 µM: 36.4 ± 1.91%
[2]
  inhibition at 10 µM: < 5%
[3]
  inhibition at 10 µM: < 5%
[4]
  inhibition at 10 µM: 19.2%
[5]
  inhibition at 10 µM: 26.2%
[6]
  inhibition at 10 µM: < 5%
[7]
  inhibition at 10 µM: 19.7%
[8]
  inhibition at 10 µM: < 5%
[9]
  inhibition at 10 µM: < 5%
[10]
  inhibition at 10 µM: 23.4%
[11]
  inhibition at 10 µM: 8.51%
[12]
  inhibition at 10 µM: < 5%
[13]
  inhibition at 10 µM: 39.3%
